According to the supplement of paper PMC10307832:

Columns and labels:
Assay in all cases: relative viability (nuclei count vs DMSO), 5 days (fraction); higher = more cells survive
BEN = test system: BEN
Method in brief: (§1)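 Lung cancer cell lines in 1536-well plates got either a single drug or a fixed anchor-drug dose together with five library-drug doses (not always all listed) in √10 steps, by pin tool, on the day after seeding. Nuclei were counted after 5 days, and relative viability is the treated-to-vehicle ratio of nuclei counts. Values are medians of duplicate plates.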

EKVX = test system: EKVX
Method in brief: as §1

HARA = test system: HARA
Method in brief: as §1

HCC-827 = test system: HCC-827
Method in brief: as §1

LOU-NH91 = test system: LOU-NH91
Method in brief: as §1

NCI-H1355 = test system: NCI-H1355
Method in brief: as §1

NCI-H1395 = test system: NCI-H1395
Method in brief: as §1

NCI-H1437 = test system: NCI-H1437
Method in brief: as §1

NCI-H1734 = test system: NCI-H1734
Method in brief: as §1

NCI-H1792 = test system: NCI-H1792
Method in brief: as §1

NCI-H1993 = test system: NCI-H1993
Method in brief: as §1

NCI-H2009 = test system: NCI-H2009
Method in brief: as §1

NCI-H2087 = test system: NCI-H2087
Method in brief: as §1

NCI-H2170 = test system: NCI-H2170
Method in brief: as §1

NCI-H2342 = test system: NCI-H2342
Method in brief: as §1

NCI-H2405 = test system: NCI-H2405
Method in brief: as §1

NCI-H522 = test system: NCI-H522
Method in brief: as §1

NCI-H647 = test system: NCI-H647
Method in brief: as §1

NCI-H661 = test system: NCI-H661
Method in brief: as §1

SK-LU-1 = test system: SK-LU-1
Method in brief: as §1

SK-MES-1 = test system: SK-MES-1
Method in brief: as §1

`COc1cc2nccc(Oc3ccc(NC(=O)Nc4cc(C)on4)c(Cl)c3)c2cc1OC` [Tivozanib] + CCNC(=O)c1noc(-c2cc(C(C)C)c(O)cc2O)c1-c1ccc(CN2CCOCC2)cc1 [Luminespib] (partner 0.01 µM) gave a relative viability (BEN; first compound 0.005 µM) of 0.337, a relative viability (BEN; first compound 0.01581 µM) of 0.305 and a relative viability (BEN; first compound 0.05 µM) of 0.508. For the same compound, the relative viability (BEN; first compound 0.1581 µM) was 0.148, the relative viability (BEN; first compound 0.5 µM) was 0.299 and the relative viability (EKVX; first compound 0.005 µM) was 0.856. It also gave a relative viability (EKVX; first compound 0.01581 µM) of 0.834, a relative viability (EKVX; first compound 0.05 µM) of 0.879 and a relative viability (EKVX; first compound 0.1581 µM) of 0.908. For the same compound, the relative viability (EKVX; first compound 0.5 µM) was 0.847, the relative viability (HARA; first compound 0.005 µM) was 0.686 and the relative viability (HARA; first compound 0.01581 µM) was 0.795. It also gave a relative viability (HARA; first compound 0.05 µM) of 0.75, a relative viability (HARA; first compound 0.1581 µM) of 0.964 and a relative viability (HARA; first compound 0.5 µM) of 0.689. For the same compound, the relative viability (HCC-827; first compound 0.005 µM) was 0.588, the relative viability (HCC-827; first compound 0.01581 µM) was 0.63 and the relative viability (HCC-827; first compound 0.05 µM) was 0.413. The relative viability (HCC-827; first compound 0.1581 µM) was 0.467, the relative viability (HCC-827; first compound 0.5 µM) was 0.6 and the relative viability (LOU-NH91; first compound 0.005 µM) was 0.334. The relative viability (LOU-NH91; first compound 0.01581 µM) was 0.333, the relative viability (LOU-NH91; first compound 0.05 µM) was 0.374 and the relative viability (LOU-NH91; first compound 0.1581 µM) was 0.33. The relative viability (LOU-NH91; first compound 0.5 µM) was 0.35, the relative viability (NCI-H1355; first compound 0.005 µM) was 0.612 and the relative viability (NCI-H1355; first compound 0.01581 µM) was 0.686. It also gave a relative viability (NCI-H1355; first compound 0.05 µM) of 0.747, a relative viability (NCI-H1355; first compound 0.1581 µM) of 0.462 and a relative viability (NCI-H1355; first compound 0.5 µM) of 0.728. It also gave a relative viability (NCI-H1395; first compound 0.005 µM) of 0.654, a relative viability (NCI-H1395; first compound 0.01581 µM) of 0.755 and a relative viability (NCI-H1395; first compound 0.05 µM) of 0.852. For the same compound, the relative viability (NCI-H1395; first compound 0.1581 µM) was 0.706, the relative viability (NCI-H1395; first compound 0.5 µM) was 0.688 and the relative viability (NCI-H1437; first compound 0.005 µM) was 1.14. The relative viability (NCI-H1437; first compound 0.01581 µM) was 1.11, the relative viability (NCI-H1437; first compound 0.05 µM) was 1.13 and the relative viability (NCI-H1437; first compound 0.1581 µM) was 1.13. For the same compound, the relative viability (NCI-H1437; first compound 0.5 µM) was 1.11, the relative viability (NCI-H1734; first compound 0.005 µM) was 0.2 and the relative viability (NCI-H1734; first compound 0.01581 µM) was 0.231. For the same compound, the relative viability (NCI-H1734; first compound 0.05 µM) was 0.325, the relative viability (NCI-H1734; first compound 0.1581 µM) was 0.178 and the relative viability (NCI-H1734; first compound 0.5 µM) was 0.18. The relative viability (NCI-H1792; first compound 0.005 µM) was 0.457, the relative viability (NCI-H1792; first compound 0.01581 µM) was 0.344 and the relative viability (NCI-H1792; first compound 0.05 µM) was 0.598. It also gave a relative viability (NCI-H1792; first compound 0.1581 µM) of 0.415, a relative viability (NCI-H1792; first compound 0.5 µM) of 0.551 and a relative viability (NCI-H1993; first compound 0.005 µM) of 0.783. It also gave a relative viability (NCI-H1993; first compound 0.01581 µM) of 0.741, a relative viability (NCI-H1993; first compound 0.05 µM) of 0.955 and a relative viability (NCI-H1993; first compound 0.1581 µM) of 0.753. For the same compound, the relative viability (NCI-H1993; first compound 0.5 µM) was 0.825, the relative viability (NCI-H2009; first compound 0.005 µM) was 1.04 and the relative viability (NCI-H2009; first compound 0.01581 µM) was 1.01. For the same compound, the relative viability (NCI-H2009; first compound 0.05 µM) was 0.973, the relative viability (NCI-H2009; first compound 0.1581 µM) was 1.04 and the relative viability (NCI-H2009; first compound 0.5 µM) was 0.984. The relative viability (NCI-H2087; first compound 0.005 µM) was 0.135, the relative viability (NCI-H2087; first compound 0.01581 µM) was 0.209 and the relative viability (NCI-H2087; first compound 0.05 µM) was 0.189. It also gave a relative viability (NCI-H2087; first compound 0.1581 µM) of 0.148, a relative viability (NCI-H2087; first compound 0.5 µM) of 0.147 and a relative viability (NCI-H2170; first compound 0.005 µM) of 0.711. For the same compound, the relative viability (NCI-H2170; first compound 0.01581 µM) was 0.606, the relative viability (NCI-H2170; first compound 0.05 µM) was 0.661 and the relative viability (NCI-H2170; first compound 0.1581 µM) was 0.304. For the same compound, the relative viability (NCI-H2170; first compound 0.5 µM) was 0.907, the relative viability (NCI-H2342; first compound 0.005 µM) was 0.673 and the relative viability (NCI-H2342; first compound 0.01581 µM) was 0.656. The relative viability (NCI-H2342; first compound 0.05 µM) was 0.802, the relative viability (NCI-H2342; first compound 0.5 µM) was 0.626 and the relative viability (NCI-H2405; first compound 0.005 µM) was 0.644. For the same compound, the relative viability (NCI-H2405; first compound 0.01581 µM) was 0.953, the relative viability (NCI-H2405; first compound 0.05 µM) was 0.723 and the relative viability (NCI-H2405; first compound 0.1581 µM) was 0.684. The relative viability (NCI-H2405; first compound 0.5 µM) was 0.54, the relative viability (NCI-H522; first compound 0.005 µM) was 0.903 and the relative viability (NCI-H522; first compound 0.01581 µM) was 1.01. It also gave a relative viability (NCI-H522; first compound 0.05 µM) of 1.03, a relative viability (NCI-H522; first compound 0.1581 µM) of 1.16 and a relative viability (NCI-H522; first compound 0.5 µM) of 1.22. For the same compound, the relative viability (NCI-H647; first compound 0.005 µM) was 0.156, the relative viability (NCI-H647; first compound 0.01581 µM) was 0.527 and the relative viability (NCI-H647; first compound 0.05 µM) was 0.401. The relative viability (NCI-H647; first compound 0.1581 µM) was 0.257, the relative viability (NCI-H647; first compound 0.5 µM) was 0.148 and the relative viability (NCI-H661; first compound 0.005 µM) was 0.958. It also gave a relative viability (NCI-H661; first compound 0.01581 µM) of 0.956, a relative viability (NCI-H661; first compound 0.05 µM) of 0.982 and a relative viability (NCI-H661; first compound 0.1581 µM) of 0.998. It also gave a relative viability (NCI-H661; first compound 0.5 µM) of 0.953, a relative viability (SK-LU-1; first compound 0.005 µM) of 0.197 and a relative viability (SK-LU-1; first compound 0.01581 µM) of 0.211. For the same compound, the relative viability (SK-LU-1; first compound 0.05 µM) was 0.201, the relative viability (SK-LU-1; first compound 0.1581 µM) was 0.184 and the relative viability (SK-LU-1; first compound 0.5 µM) was 0.207. It also gave a relative viability (SK-MES-1; first compound 0.005 µM) of 0.737, a relative viability (SK-MES-1; first compound 0.01581 µM) of 0.832 and a relative viability (SK-MES-1; first compound 0.05 µM) of 0.773. It also gave a relative viability (SK-MES-1; first compound 0.1581 µM) of 0.837 and a relative viability (SK-MES-1; first compound 0.5 µM) of 0.807.
